From article PMC9281569, “Two HCN4 Channels Play Functional Roles in the Zebrafish Heart” (Frontiers in Physiology, 2022)
“And” between values parts separate entries of the source, which are not always exact repeats. Equal values may be shown once. Where a name gives a salt, the structure may show the parent alone. Read-outs that look alike come from different tables or passages of the source.

Assays:
DrHCN4L = molecular target: T1, DrHCN4L (Danio rerio, UniProt A0A8N7TEJ3); experiment: Inhibition of HCN4 currents in Xenopus oocytes, two-electrode voltage clamp; assay type: cell-based, zebrafish (Danio rerio); details: holding −30 mV, hyperpolarized to −120 mV for 2 s, room temperature
T1 sequence (A0A8N7TEJ3 1-1188): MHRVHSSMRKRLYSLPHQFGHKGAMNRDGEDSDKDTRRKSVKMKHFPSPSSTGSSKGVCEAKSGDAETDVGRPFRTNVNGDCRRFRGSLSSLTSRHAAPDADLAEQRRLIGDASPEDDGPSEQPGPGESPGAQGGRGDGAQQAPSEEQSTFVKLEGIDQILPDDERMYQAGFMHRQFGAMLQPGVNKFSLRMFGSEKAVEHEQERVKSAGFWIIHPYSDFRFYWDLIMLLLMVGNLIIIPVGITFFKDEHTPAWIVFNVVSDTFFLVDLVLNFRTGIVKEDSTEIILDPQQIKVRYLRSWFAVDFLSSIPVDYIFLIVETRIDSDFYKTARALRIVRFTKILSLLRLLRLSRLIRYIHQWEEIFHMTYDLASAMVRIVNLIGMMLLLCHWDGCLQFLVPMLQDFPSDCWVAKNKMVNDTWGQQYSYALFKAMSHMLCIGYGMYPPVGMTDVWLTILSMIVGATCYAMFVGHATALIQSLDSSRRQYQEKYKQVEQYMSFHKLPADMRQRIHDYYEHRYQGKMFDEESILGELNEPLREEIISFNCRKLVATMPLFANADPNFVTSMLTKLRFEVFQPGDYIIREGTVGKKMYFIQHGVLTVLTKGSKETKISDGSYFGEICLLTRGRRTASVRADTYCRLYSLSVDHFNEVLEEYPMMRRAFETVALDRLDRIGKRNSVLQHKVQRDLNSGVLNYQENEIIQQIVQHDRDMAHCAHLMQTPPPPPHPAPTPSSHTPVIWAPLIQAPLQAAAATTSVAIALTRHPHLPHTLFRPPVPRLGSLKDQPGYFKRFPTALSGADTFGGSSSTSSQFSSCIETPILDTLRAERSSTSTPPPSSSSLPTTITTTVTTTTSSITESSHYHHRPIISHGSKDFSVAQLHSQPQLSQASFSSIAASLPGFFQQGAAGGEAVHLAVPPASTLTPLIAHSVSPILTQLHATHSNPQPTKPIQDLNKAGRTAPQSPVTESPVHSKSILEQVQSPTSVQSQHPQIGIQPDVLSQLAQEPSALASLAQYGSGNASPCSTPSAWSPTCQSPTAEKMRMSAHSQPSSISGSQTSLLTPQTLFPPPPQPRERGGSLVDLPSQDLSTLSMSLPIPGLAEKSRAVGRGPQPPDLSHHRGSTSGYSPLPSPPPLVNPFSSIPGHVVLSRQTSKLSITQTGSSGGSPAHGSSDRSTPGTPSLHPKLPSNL

[1] = test system: Isolated adult zebrafish heart; set-up: method as in Stoyek et al., 2022; details: bath application; ref Stoyek et al., 2022; cited from earlier work
patients = test system: patients; set-up: method as in Swedberg et al., 2010; details: administration to patients; ref Swedberg et al., 2010; cited from earlier work
[2] = DrHCN4L in Xenopus oocytes, read-out: IC50

[Cl-].[Cs+] [Cesium ion, Cesium chloride]
IC50 (DrHCN4L; DrHCN4L in Xenopus oocytes, listed as Cs^+, read-out: IC50): 48 ± 7 µM
IC50 (DrHCN4L; [2]): 48.3 ± 6.9 µM
Block of isolated adult zebrafish heart [1]: 73%

CCN(c1ccccc1)c1cc(=NC)n(C)c(C)n1.Cl [ZD7288]
IC50 (DrHCN4L; [2]): 596 ± 383 µM

COc1cc2c(cc1OC)CC(=O)N(CCCN(C)C[C@H]1Cc3cc(OC)c(OC)cc31)CC2 [Ivabradine, ivabradine hydrochloride]
IC50 (DrHCN4L; IC50, DrHCN4L in Xenopus oocytes): 10 µM and 10.4 µM
Reduction of heart rate (patients): about 20%
Block of isolated adult zebrafish heart [1]: 86%
